From US9249180B2, “C-3 alkyl and alkenyl modified betulinic acid derivatives” (priority 2013, dated 2016) come the findings set out here.

Usually pEC50 stands for −log10 of the EC50, conventionally taken in molar units.

pEC50: −log10 of the molar value.

For one experiment, the system named is recombinant NL4-3 virus (Renilla luciferase in nef, Gag P373S; NLRluc) in MT-2 cells. As to the kind of experiment: HIV Cell Culture Assay (luciferase reporter, antiviral activity). It is filed as cell-based. As to conditions: MT-2 cells infected for 4-5 days with NLRluc recombinants, serial dilutions of the inhibitor. The protocol:
HIV Cell Culture Assay—MT-2 cells and 293T cells were obtained from the NIH AIDS Research and Reference Reagent Program. MT-2 cells were propagated in RPMI 1640 media supplemented with 10% heat inactivated fetal bovine serum, […]. The 293T cells were propagated in DMEM media supplemented with 10% heat inactivated fetal bovine serum (FBS), 100 units/ml penicillin G and 100 μg/ml streptomycin. The proviral DNA clone of NL4-3 was obtained from the NIH AIDS Research and Reference Reagent Program. A recombinant NL4-3 virus, in which a section of the nef gene from NL4-3 was replaced with the Renilla luciferase gene, was used as a reference virus. In addition, residue Gag P373 was converted to P373S. Briefly, the recombinant virus was prepared by transfection of the altered proviral clone of NL4-3. Transfections were performed in 293T cells using LipofectAMINE PLUS from Invitrogen (Carlsbad, Calif.), according to manufacturer's instruction. The virus was titered in MT-2 cells using luciferase enzyme activity as a marker. Luciferase was quantitated using the Dual Luciferase kit from Promega (Madison, Wis.), with modifications to the manufacturer's protocol. The diluted Passive Lysis solution was pre-mixed with the re-suspended Luciferase Assay Reagent and the re-suspended Stop & Glo Substrate (2:1:1 ratio). Fifty (50) μL of the mixture was added to each aspirated well on assay plates and luciferase activity was measured immediately on a Wallac TriLux (Perkin-Elmer). Antiviral activities of inhibitors toward the recombinant virus were quantified by measuring luciferase activity in cells infected for 4-5 days with NLRluc recombinants in the presence serial dilutions of the inhibitor.
As to `C=C(C)[C@@H]1CC[C@]2(NCCN3CCS(=O)(=O)CC3)CC[C@]3(C)[C@H](CC[C@@H]4[C@@]5(C)CC=C(CC6CCCC(C(=O)O)C6)C(C)(C)[C@@H]5CC[C@]43C)[C@@H]12` (single isomer, unassigned) [Example 3], the pEC50 is 8.76.

Still in this experiment, the particulars now being: Renilla, NL43, MT-2 cells infected for 4-5 days with NLRluc recombinants, serial dilutions of the inhibitor.
On to `C=C(C)[C@@H]1CC[C@]2(NCCN3CCC(S(C)(=O)=O)CC3)CC[C@]3(C)[C@H](CC[C@@H]4[C@@]5(C)CC=C(C=C6CCC(F)(C(=O)O)CC6)C(C)(C)[C@@H]5CC[C@]43C)[C@@H]12` (mixture of isomers) [Example B3, 1-fluoro-4-(((1R,3aS,5aR,5bR,7aR,11aS,11bR,13aR,13bR)-5a,5b,8,8,11a-pentamethyl-3a-((2-(4-(methylsulfonyl)piperidin-1-yl)ethyl)amino)-1-(prop-1-en-2-yl)-2,3,3a,4,5,5a,5b,6,7,7a,8,11,11a,11b,12,13,13a,13b-octadecahydro-1H-cyclopenta[a]chrysen-9-yl)methylene)cyclohexanecarboxylic acid], for which the pEC50 is 8.35.

Turning to `C=C(C)[C@@H]1CC[C@]2(NCCN3CCS(=O)(=O)CC3)CC[C@]3(C)[C@H](CC[C@@H]4[C@@]5(C)CC=C(CC6CCCC(C(=O)O)C6)C(C)(C)[C@@H]5CC[C@]43C)[C@@H]12` (single isomer, unassigned) [Example 2], the pEC50 is 8.70.

As to `C=C(C)[C@@H]1CC[C@]2(NCCN3CCS(=O)(=O)CC3)CC[C@]3(C)[C@H](CC[C@@H]4[C@@]5(C)CC=C(CC6CCC(C(=O)O)CC6)C(C)(C)[C@@H]5CC[C@]43C)[C@@H]12` (stereo partly drawn) [Example 1, 4-(((1R,3aS,5aR,5bR,7aR,11aS,11bR,13aR,13bR)-3a-((2-(1,1-dioxidothiomorpholino)ethyl)amino)-5a,5b,8,8,11a-pentamethyl-1-(prop-1-en-2-yl)-2,3,3a,4,5,5a,5b,6,7,7a,8,11,11a,11b,12,13,13a,13b-octadecahydro-1H-cyclopenta[a]chrysen-9-yl)methyl)cyclohexanecarboxylic acid], the pEC50 was 8.53.

For the compound `C=C(C)[C@@H]1CC[C@]2(NCCN3CCS(=O)(=O)CC3)CC[C@]3(C)[C@H](CC[C@@H]4[C@@]5(C)CC=C(CCCCC(=O)O)C(C)(C)[C@@H]5CC[C@]43C)[C@@H]12` [Example 4, 5-((1R,3aS,5aR,5bR,7aR,11aS,11bR,13aR,13bR)-3a-((2-(1,1-dioxidothiomorpholino)ethyl)amino)-5a,5b,8,8,11a-pentamethyl-1-(prop-1-en-2-yl)-2,3,3a,4,5,5a,5b,6,7,7a,8,11,11a,11b,12,13,13a,13b-octadecahydro-1H-cyclopenta[a]chrysen-9-yl)pentanoic acid], the pEC50 was 8.64.

`C=C(C)[C@@H]1CC[C@]2(NCCN3CCS(=O)(=O)CC3)CC[C@]3(C)[C@H](CC[C@@H]4[C@@]5(C)CC=C(CCCC(C(=O)O)C(=O)O)C(C)(C)[C@@H]5CC[C@]43C)[C@@H]12` [Example 5, 2-(3-((1R,3aS,5aR,5bR,7aR,11aS,11bR,13aR,13bR)-3a-((2-(1,1-dioxidothiomorpholino)ethyl)amino)-5a,5b,8,8,11a-pentamethyl-1-(prop-1-en-2-yl)-2,3,3a,4,5,5a,5b,6,7,7a,8,11,11a,11b,12,13,13a,13b-octadecahydro-1H-cyclopenta[a]chrysen-9-yl)propyl)malonic acid]: the pEC50 was 6.51.

Turning to `C=C(C)[C@@H]1CC[C@]2(NCCN3CCS(=O)(=O)CC3)CC[C@]3(C)[C@H](CC[C@@H]4[C@@]5(C)CC=C(CCC(C)(C)CC(=O)O)C(C)(C)[C@@H]5CC[C@]43C)[C@@H]12` [Example 6, 5-((1R,3aS,5aR,5bR,7aR,11aS,11bR,13aR,13bR)-3a-((2-(1,1-dioxidothiomorpholino)ethyl)amino)-5a,5b,8,8,11a-pentamethyl-1-(prop-1-en-2-yl)-2,3,3a,4,5,5a,5b,6,7,7a,8,11,11a,11b,12,13,13a,13b-octadecahydro-1H-cyclopenta[a]chrysen-9-yl)-3,3-dimethylpentanoic acid], the pEC50 is 8.86.

In the case of `C=C(C)[C@@H]1CC[C@]2(NCCN3CCS(=O)(=O)CC3)CC[C@]3(C)[C@H](CC[C@@H]4[C@@]5(C)CC=C(CCCC(C)(C)C(=O)O)C(C)(C)[C@@H]5CC[C@]43C)[C@@H]12` [Example 7, 5-((1R,3aS,5aR,5bR,7aR,11aS,11bR,13aR,13bR)-3a-((2-(1,1-dioxidothiomorpholino)ethyl)amino)-5a,5b,8,8,11a-pentamethyl-1-(prop-1-en-2-yl)-2,3,3a,4,5,5a,5b,6,7,7a,8,11,11a,11b,12,13,13a,13b-octadecahydro-1H-cyclopenta[a]chrysen-9-yl)-2,2-dimethylpentanoic acid], the pEC50 is 8.28.

With `C=C(C)[C@@H]1CC[C@]2(NCCN3CCS(=O)(=O)CC3)CC[C@]3(C)[C@H](CC[C@@H]4[C@@]5(C)CC=C(CC6CCC(OCC)(C(=O)O)CC6)C(C)(C)[C@@H]5CC[C@]43C)[C@@H]12` (stereo partly drawn) [Example 8, 4-(((1R,3aS,5aR,5bR,7aR,11aS,11bR,13aR,13bR)-3a-((2-(1,1-dioxidothiomorpholino)ethyl)amino)-5a,5b,8,8,11a-pentamethyl-1-(prop-1-en-2-yl)-2,3,3a,4,5,5a,5b,6,7,7a,8,11,11a,11b,12,13,13a,13b-octadecahydro-1H-cyclopenta[a]chrysen-9-yl)methyl)-1-ethoxycyclohexanecarboxylic acid], the negative-log EC50 (pEC50) was 8.38.

Regarding `C=C(C)[C@@H]1CC[C@]2(NCCN3CCS(=O)(=O)CC3)CC[C@]3(C)[C@H](CC[C@@H]4[C@@]5(C)CC=C(CC6CCC(OC)(C(=O)O)CC6)C(C)(C)[C@@H]5CC[C@]43C)[C@@H]12` (stereo partly drawn) [Example 9, 4-(((1R,3aS,5aR,5bR,7aR,11aS,11bR,13aR,13bR)-3a-((2-(1,1-dioxidothiomorpholino)ethyl)amino)-5a,5b,8,8,11a-pentamethyl-1-(prop-1-en-2-yl)-2,3,3a,4,5,5a,5b,6,7,7a,8,11,11a,11b,12,13,13a,13b-octadecahydro-1H-cyclopenta[a]chrysen-9-yl)methyl)-1-methoxycyclohexanecarboxylic acid], the pEC50 is 8.43.

Consider `C=C(C)[C@@H]1CC[C@]2(NCCN3CCS(=O)(=O)CC3)CC[C@]3(C)[C@H](CC[C@@H]4[C@@]5(C)CC=C(CCCCCC(=O)O)C(C)(C)[C@@H]5CC[C@]43C)[C@@H]12` [Example 10, 6-((1R,3aS,5aR,5bR,7aR,11aS,11bR,13aR,13bR)-3a-((2-(1,1-dioxidothiomorpholino)ethyl)amino)-5a,5b,8,8,11a-pentamethyl-1-(prop-1-en-2-yl)-2,3,3a,4,5,5a,5b,6,7,7a,8,11,11a,11b,12,13,13a,13b-octadecahydro-1H-cyclopenta[a]chrysen-9-yl)hexanoic acid], for which the pEC50 was 8.51.

Regarding `C=C(C)[C@@H]1CC[C@]2(NCCN3CCS(=O)(=O)CC3)CC[C@]3(C)[C@H](CC[C@@H]4[C@@]5(C)CC=C(CCCC(=O)O)C(C)(C)[C@@H]5CC[C@]43C)[C@@H]12` [Example 11, 4-((1R,3aS,5aR,5bR,7aR,11aS,11bR,13aR,13bR)-3a-((2-(1,1-dioxidothiomorpholino)ethyl)amino)-5a,5b,8,8,11a-pentamethyl-1-(prop-1-en-2-yl)-2,3,3a,4,5,5a,5b,6,7,7a,8,11,11a,11b,12,13,13a,13b-octadecahydro-1H-cyclopenta[a]chrysen-9-yl)butanoic acid], the pEC50 is 8.00.

Turning to `C=C(C)[C@@H]1CC[C@]2(NCCN3CCS(=O)(=O)CC3)CC[C@]3(C)[C@H](CC[C@@H]4[C@@]5(C)CC=C(CCC(C)(C)CC(=O)NO)C(C)(C)[C@@H]5CC[C@]43C)[C@@H]12` [Example 12, 5-((1R,3aS,5aR,5bR,7aR,11aS,11bR,13aR,13bR)-3a-((2-(1,1-dioxidothiomorpholino)ethyl)amino)-5a,5b,8,8,11a-pentamethyl-1-(prop-1-en-2-yl)-2,3,3a,4,5,5a,5b,6,7,7a,8,11,11a,11b,12,13,13a,13b-octadecahydro-1H-cyclopenta[a]chrysen-9-yl)-N-hydroxy-3,3-dimethylpentanamide], the pEC50 is 8.70.

Consider `C=C(C)[C@@H]1CC[C@]2(NCCN3CCS(=O)(=O)CC3)CC[C@]3(C)[C@H](CC[C@@H]4[C@@]5(C)CC=C(CCC(C)(C)CC(=O)NOC)C(C)(C)[C@@H]5CC[C@]43C)[C@@H]12` [Example 13, 5-((1R,3aS,5aR,5bR,7aR,11aS,11bR,13aR,13bR)-3a-((2-(1,1-dioxidothiomorpholino)ethyl)amino)-5a,5b,8,8,11a-pentamethyl-1-(prop-1-en-2-yl)-2,3,3a,4,5,5a,5b,6,7,7a,8,11,11a,11b,12,13,13a,13b-octadecahydro-1H-cyclopenta[a]chrysen-9-yl)-N-methoxy-3,3-dimethylpentanamide], for which the pEC50 is 7.52.
